Blank lines part the entries; values can stand above or below the compound they belong to.
Test: solvent given as SMILES

- absorption maximum (in c1ccccc1): 474 nm
Compound: CN(C)c1ccc2ccc3oc(=O)c(-c4ccccc4)nc3c2c1

- absorption maximum (in CS(C)=O): 398 nm
Compound: c1cnc2c(c1)c1nc(-c3ccc(-c4nc5c6cccnc6c6ncccc6c5[nH]4)cc3)[nH]c1c1cccnc12

- absorption maximum (in CC#N): 352 nm
Compound: CC(=O)c1cc2c(cc1F)NC(C)(C)CC2=O

- absorption maximum (in ClCCl): 324 nm
Compound: Cc1ccc(-c2cnc3ccc4ccccc4n23)cc1

- absorption maximum (in ClC(Cl)Cl): 765 nm
Compound: COc1ccc2c(c1)O[B-]13Oc4cc(OC)ccc4-c4cc(-c5ccccc5)c(n41)N=C1C(c4ccccc4)=CC2=[N+]13 (centres undefined)

- absorption maximum (in ClCCl): 389 nm
Compound: CN(C)c1ccc(/C=C/c2cnccn2)cc1

- absorption maximum (in CC#N): 354 nm
Compound: CCNc1cc2oc(=O)cc(C)c2cc1C

- absorption maximum (in C1COCCO1): 306.5 nm
Compound: c1ccc(-c2ccc(-c3ccc(-c4cc(-c5ccc(-c6ccc(-c7ccccc7)cc6)cc5)cc(-c5ccc(-c6ccc(-c7ccccc7)cc6)cc5)c4)cc3)cc2)cc1

- absorption maximum (in CO): 396 nm
Compound: Cc1cc(C)c(B(c2cc(-c3ccc(C(C)(C)C)cc3)sc2-c2sc(-c3ccc(C(C)(C)C)cc3)cc2P(=O)(c2ccccc2)c2ccccc2)c2c(C)cc(C)cc2C)c(C)c1

- absorption maximum (in C1CCCCC1): 416 nm
- absorption maximum (in CC#N): 417 nm
- absorption maximum (in CO): 416 nm
- absorption maximum (in ClCCl): 419 nm
Compound: COc1c2ccccc2c(OC)c2c1c1ccc(C(F)(F)F)cc1n2C

- absorption maximum (in C1CCOC1): 362 nm
- absorption maximum (in ClCCl): 365 nm
Compound: COc1ccc(C2=Cc3ccccc3P2(=O)c2ccccc2)cc1 (centres undefined)

- absorption maximum (in ClC(Cl)Cl): 424 nm
Compound: CCCN1c2ccccc2Sc2cc(/C=C\c3cc(=O)oc4cc(C)ccc34)ccc21

- absorption maximum (in CCCCCC): 326 nm
- absorption maximum (in CCCCCCCCO): 327 nm
- absorption maximum (in CCCCO): 326 nm
- absorption maximum (in CCCO): 325 nm
- absorption maximum (in CCO): 324 nm
- absorption maximum (in CCOC(C)=O): 326 nm
- absorption maximum (in CN(C)C=O): 328 nm
- absorption maximum (in CO): 324 nm
- absorption maximum (in ClC(Cl)Cl): 327 nm
Compound: COc1ccc2cc(-c3ccc(C(F)(F)F)cc3)oc(=O)c2c1

Compound: CC1=[N+]2C(=C(c3c4ccccc4c(C)c4ccccc34)c3ccc(C)n3[B-]2(F)F)C=C1
- absorption maximum (in CC#N): 514 nm
- absorption maximum (in CCCCCC): 515 nm
- absorption maximum (in CCO): 515 nm
- absorption maximum (in CN(C)C=O): 517 nm
- absorption maximum (in Cc1ccccc1): 519 nm
- absorption maximum (in ClCCl): 517 nm

Compound: CCN(CC)c1cccc(C=O)c1
- absorption maximum (in CC#N): 380 nm
- absorption maximum (in CC(C)O): 382 nm
- absorption maximum (in CCCCCC): 367 nm
- absorption maximum (in CCOC(C)=O): 376 nm
- absorption maximum (in CO): 382 nm
- absorption maximum (in CS(C)=O): 384 nm
- absorption maximum (in Cc1ccccc1): 380 nm
- absorption maximum (in ClCCl): 382 nm

- absorption maximum (in ClC(Cl)Cl): 421 nm
Compound: CCCCCCCCn1c(=O)c2cc3cc4cc5c(=O)n(CCCCCCCC)c(=O)c5cc4cc3cc2c1=O

- absorption maximum (in ClCCl): 526 nm
Compound: COc1ccc(C2=C(c3ccc(OC)cc3)c3cccc4c5c(cc(c34)O2)=NC2C=C(Br)C(Br)=CC2N=5)cc1 (centres undefined)

- absorption maximum (in C1CCCCC1): 355 nm
- absorption maximum (in C1CCOC1): 363 nm
- absorption maximum (in C1COCCO1): 361 nm
- absorption maximum (in CC#N): 357 nm
- absorption maximum (in CC(C)(C)O): 368 nm
- absorption maximum (in CC(C)O): 367 nm
- absorption maximum (in CCCCCC): 353 nm
- absorption maximum (in CCCCO): 367 nm
- absorption maximum (in CCO): 364 nm
- absorption maximum (in CCOC(C)=O): 347 nm
- absorption maximum (in CN(C)C=O): 364 nm
- absorption maximum (in CO): 361 nm
- absorption maximum (in CS(C)=O): 366 nm
- absorption maximum (in ClC(Cl)Cl): 344 nm
- absorption maximum (in ClCCl): 343 nm
- absorption maximum (in O): 358 nm
- absorption maximum (in OCCO): 363 nm
Compound: Cc1cc(O)c(C(C)C)cc1/N=C/c1ccc(C(F)(F)F)cc1

Compound: [NH3+]c1ccc2c(c1)Cc1ccccc1-2
- absorption maximum (in O): 299 nm

Compound: c1ccc2c(c1)Oc1ccccc1N2c1ccc2c(c1)c1ccccc1n1ccnc21
- absorption maximum (in Cc1ccccc1): 376 nm

Compound: COc1ccc(C2=[N+]3C(=Nc4c5c6cc(OC)c(OC)c(OC)c6c6cc(C(C)(C)C)ccc6c5c(-c5ccc(OC)cc5)n4[B-]3(F)F)c3c2c2ccc(C(C)(C)C)cc2c2c(OC)c(OC)c(OC)cc32)cc1
- absorption maximum (in Cc1ccccc1): 745 nm

- absorption maximum (in ClC(Cl)Cl): 652 nm
Compound: CCCCCCCCC1(CCCCCCCC)c2cc3c(cc2-c2sc(-c4ccc(/C=C5\SC(=S)N(CC)C5=O)c5nsnc45)cc21)C(CCCCCCCC)(CCCCCCCC)c1cc(-c2ccc(/C=C4\SC(=S)N(CC)C4=O)c4nsnc24)sc1-3

- absorption maximum (in ClCCl): 630 nm
Compound: CC(C)CCCC(C)CCN1C(=O)c2ccc3c(-c4ccccc4)c4c5ccc6c7c(ccc(c(-c8ccccc8)c4c4ccc(c2c34)C1=O)c75)C(=O)N(CCC(C)CCCC(C)C)C6=O (centres undefined)

- absorption maximum (in CCO): 421 nm
Compound: CCOC(=O)c1cc(C(=O)OCC)c2cc(N)ccc2n1

- absorption maximum (in O): 649 nm
Compound: COc1ccccc1C1=C2C=CC(=[N+](C)C)C=C2[Si](C)(C)c2cc(N(C)C)ccc21

- absorption maximum (in O): 341 nm
Compound: CC1(C)C(=O)C=Cc2ccc(O)cc21

Compound: CC1=CC(c2ccc(N(C)C)cc2)=[N+]2C1=Nc1c(C)cc(-c3ccc(N(C)C)cc3)n1[B-]2(F)F
- absorption maximum (in C1CCOC1): 744 nm
- absorption maximum (in CS(C)=O): 774 nm
- absorption maximum (in Cc1ccccc1): 734 nm

- absorption maximum (in O): 290 nm
Compound: Nc1ncc2nc[nH]c2n1

- absorption maximum (in O): 454 nm
Compound: CC[n+]1c(-c2ccccc2)c2cc(N)ccc2c2ccc(-n3cccc3)cc21

Compound: F[B-]1(F)Oc2ccccc2-c2cc(-n3c4ccccc4c4ccccc43)cc[n+]21
- absorption maximum (in Cc1ccccc1): 366 nm

- absorption maximum (in ClCCl): 649 nm
Compound: COC(=O)CCC1=CC(C#Cc2cccs2)=[N+]2C1=Cc1c(CCC(=O)OC)cc(C#Cc3cccs3)n1[B-]2(F)F

- absorption maximum (in CCO): 381 nm
Compound: Cc1c(COC(=O)c2ccccc2)n2c(OCC(=O)c3ccccc3)c(C)c(=O)n2c1=O

- absorption maximum (in ClCCl): 370 nm
Compound: C(=C\c1ccc(-c2cccc3ccccc23)s1)/c1cccs1

Compound: CCN(CC)c1ccc(-c2nc3c(c4c2-c2ccc(C#N)cc2CC4)-c2ccc(C#N)cc2CC3)cc1
- absorption maximum (in C1CCOC1): 364 nm
- absorption maximum (in CC#N): 360 nm
- absorption maximum (in CCCCCC): 369 nm
- absorption maximum (in CCOC(C)=O): 358 nm
- absorption maximum (in CO): 360 nm
- absorption maximum (in CS(C)=O): 375 nm
- absorption maximum (in Cc1ccccc1): 368 nm
- absorption maximum (in ClCCl): 363 nm

- absorption maximum (in O): 356 nm
Compound: COc1cc(N(CC(=O)[O-])CC(=O)[O-])c2nc(COc3cc(C)ccc3N(CC(=O)[O-])CC(=O)[O-])ccc2c1

- absorption maximum (in ClC(Cl)Cl): 393 nm
Compound: CCCCCCn1c2ccccc2c2cc3c4cc5c6ccccc6n(CCCCCC)c5cc4c4cc5c(C)cc(=O)oc5cc4c3cc21

- absorption maximum (in ClC(Cl)Cl): 342 nm
Compound: COc1cc(C)c2c(c1C)OC(=O)c1c(C)c(Cl)c(O)c(Cl)c1O2

- absorption maximum (in C1CCOC1): 498 nm
Compound: FC(F)(F)C(F)(F)C(F)(F)C1=NC2=C(Oc3ccccc3)C=C3c4cc(Oc5ccccc5)c5nc(C(F)(F)C(F)(F)C(F)(F)F)nc6c(Oc7ccccc7)cc(c4c56)=C4C=C(Oc5ccccc5)C(=N1)C2C34 (centres undefined)

Compound: COc1ccc(C2=[N+]3C(=Nc4c(-c5cc(OC)c(OC)c(OC)c5)cc(-c5ccc(OC)cc5)n4[B-]3(F)F)C(c3cc(OC)c(OC)c(OC)c3)=C2)cc1
- absorption maximum (in Cc1ccccc1): 698 nm

Compound: CN(C)c1ccc(-c2nc3c(c4c2-c2ccc(C#N)cc2CC4)-c2ccc(C#N)cc2CC3)cc1
- absorption maximum (in C1CCOC1): 344 nm
- absorption maximum (in CC#N): 343 nm
- absorption maximum (in CCCCCC): 348 nm
- absorption maximum (in CCOC(C)=O): 333 nm
- absorption maximum (in CO): 332 nm
- absorption maximum (in CS(C)=O): 344 nm
- absorption maximum (in Cc1ccccc1): 344 nm
- absorption maximum (in ClCCl): 342 nm

- absorption maximum (in ClCCl): 467 nm
Compound: FC(F)(F)c1ccc(C#Cc2cc(C#Cc3ccc(C(F)(F)F)cc3)c3ccc4c(C#Cc5ccc(C(F)(F)F)cc5)cc(C#Cc5ccc(C(F)(F)F)cc5)c5ccc2c3c54)cc1

- absorption maximum (in C1CCCCC1): 314 nm
Compound: CCCC1(CCC)c2ccccc2-c2ccc(-c3ccc(C(C)(C)C)cc3)cc21

- absorption maximum (in CC#N): 234 nm
- absorption maximum (in CCCCCC): 240 nm
Compound: Cc1ccc(C)n1-c1ccccc1

Compound: CN(C)c1ccc(/C=C/c2cc[n+](C)c3ccccc23)cc1
- absorption maximum (in CC(C)=O): 540 nm
- absorption maximum (in ClCCl): 581 nm
- absorption maximum (in O): 510 nm

- absorption maximum (in ClCCl): 402 nm
Compound: CCCCC(CC)COc1ccc2nc(-c3ccc(-c4ccc(N(C)C)cc4)s3)sc2c1 (centres undefined)

- absorption maximum (in ClCCl): 348 nm
Compound: C#Cc1ccc(-c2nc(-c3ccc(C#C)s3)nc(-c3ccc(C#C)s3)n2)s1

- absorption maximum (in ClCCl): 428 nm
Compound: CC(C)(C)c1ccc(N(c2ccccc2)c2ccc3ccc4c(N(c5ccccc5)c5ccc(C(C)(C)C)cc5)ccc5ccc2c3c54)cc1

- absorption maximum (in CO): 628 nm
- absorption maximum (in ClC(Cl)Cl): 635 nm
- absorption maximum (in ClCCl): 637 nm
Compound: CCN1C(=CC2=C([O-])C(=CC3=[N+](CC)c4ccccc4C3(C)C)C2=O)C(C)(C)c2ccccc21

- absorption maximum (in CCO): 605 nm
- absorption maximum (in ClC(Cl)Cl): 616 nm
- absorption maximum (in ClCCl): 615 nm
Compound: CCN(CC)c1ccc2cc3c([o+]c2c1)/C(=C/Nc1ccccc1)CCC3

- absorption maximum (in ClCCl): 310 nm
Compound: Cc1cc2ccsc2c2[nH]c3ccccc3c12

Compound: CCc1c(C)c2n(c1C)[B-](F)(F)[N+]1=C(c3ccc[nH]3)c3ccccc3C1=C2C
- absorption maximum (in C1CCOC1): 604 nm
- absorption maximum (in CC#N): 597 nm
- absorption maximum (in CCCCCC): 604 nm
- absorption maximum (in CO): 599 nm
- absorption maximum (in Cc1ccccc1): 609 nm
- absorption maximum (in ClCCl): 605 nm

- absorption maximum (in C1CCCCC1): 424 nm
Compound: Cc1cc(C)c(B2c3cc(C(C)(C)C)cc4ccc5c6ccccc6c6cc(C(C)(C)C)cc2c6c5c34)c(C)c1

- absorption maximum (in ClCCl): 404 nm
Compound: CC(C)[Si](C#Cc1cc2c3c(c1)c(=C(c1ccccc1)c1ccccc1)c1cc(C#C[Si](C(C)C)(C(C)C)C(C)C)cc4c1N3c1c(cc(C#C[Si](C(C)C)(C(C)C)C(C)C)cc1c4=C(c1ccccc1)c1ccccc1)c2=C(c1ccccc1)c1ccccc1)(C(C)C)C(C)C

- absorption maximum (in CC#N): 324 nm
Compound: COc1ccc(-n2nc(C#N)c(N3CCOCC3)n2)cc1

- absorption maximum (in CCCCCCC): 397 nm
Compound: c1cc2c3c(cccc3c1)-c1c-2c2ccccc2c2ccccc12

- absorption maximum (in ClC(Cl)Cl): 723 nm
Compound: COc1ccc2c(c1)CCc1c(-c3ccccc3)c3n(c1-2)[B-](F)(F)[N+]1=C2C(=C(c4ccccc4)C1=N3)CCc1ccccc12

- absorption maximum (in C1CCOC1): 360 nm
- absorption maximum (in CC#N): 356 nm
- absorption maximum (in CCOC(C)=O): 362 nm
- absorption maximum (in CS(C)=O): 355 nm
- absorption maximum (in ClC(Cl)Cl): 364 nm
Compound: N#Cc1cc2ccc(O)cc2oc1=N

Source: the Deep4Chem optical property database
